SMILES strings stand for the structures. pIC50: −log10 of the molar value.

The target in the assay is T1, human Melanin concentrating hormone receptor 1 (MCH1r) (Homo sapiens, UniProt Q99705).
T1 construct: expressed in transfected cells; membranes)
T1 sequence (Q99705 whole entry): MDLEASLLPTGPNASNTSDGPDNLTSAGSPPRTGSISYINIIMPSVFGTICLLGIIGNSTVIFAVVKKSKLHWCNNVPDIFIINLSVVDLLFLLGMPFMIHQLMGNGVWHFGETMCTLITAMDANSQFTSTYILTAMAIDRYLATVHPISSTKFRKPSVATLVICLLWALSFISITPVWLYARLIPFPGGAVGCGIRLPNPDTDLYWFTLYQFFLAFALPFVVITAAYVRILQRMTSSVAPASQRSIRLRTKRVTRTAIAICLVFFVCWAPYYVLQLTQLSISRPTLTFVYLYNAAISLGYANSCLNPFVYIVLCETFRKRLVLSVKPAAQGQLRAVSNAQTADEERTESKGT
The assay is described as follows: MCH1 Receptor Radioligand Binding. As to conditions: membranes from HEK293 cells stably expressing human MCH1r; radioligand 125I-MCH. How it is done: MCH1 Receptor Radioligand Binding.
Assays were performed on membranes prepared from HEK293 cells stably expressing the human Melanin concentrating hormone receptor 1 (MCH1r) (Lembo et al. Nature Cell Biol 1 267-271). Assays were performed in a 96-well plate format in a final reaction volume of 200 μl per well. Each well contained 6,1 μg of membrane proteins diluted in binding buffer (50 mM Tris, 3 mM MgCl2, 0.05% bovine serum albumin (BSA) and the radioligand ^125I-MCH (IM344 Amersham) was added to give 10 000 cpm (counts per Minute) per well Each well contained 2 μl of the appropriate concentration of competitive antagonist prepared in DMSO and left to stand at room temperature for 60 minutes. Non-specific binding was determined as that remaining following incubation with […] MCH (Melanin concentrating hormone, H-1482 Bachem). The reaction was terminated by transfer of the reaction to GF/A filters using a Micro96 Harvester (Skatron Instruments, Norway). Filters were washed with assay buffer; Radioligand retained on the filters was quantified using a1450 Microbeta TRILUX (Wallac, Finland).
Non-specific binding was subtracted from all values determined. Maximum binding was that determined in the absence of any competitor following subtraction of the value determined for non-specific binding. Binding of compounds at various concentrations was plotted according to the equation y=A+(B−A)/1+((C/x)ˆD))) and IC50 estimated where […]
A is the bottom plateau of the curve i.e. the final minimum y value
B is the top of the plateau of the curve i.e. the final maximum y value
C is the x value at the middle of the curve. This represents the log EC50 value when A+B=100 […]
x is the original known x values. y is the original known y values.
On to `Clc1ccc(CNC2CCC(Nc3ccc4ccccc4n3)CC2)cc1Cl` (mixture of isomers) [Example 29, N-[(3,4-Dichlorophenyl)methyl]-N′-(2-quinolinyl)-1,4-cyclohexanediamine], for which the pIC50 was 6.40. In the case of `COc1ccc2nc(NC3CCCC(NCc4cc5ccccc5o4)C3)cc(C)c2c1` (mixture of isomers) [Example 53, N-(1-benzofuran-2-ylmethyl)-N′-(6-methoxy-4-methylquinolin-2-yl)cyclohexane-1,3-diamine], the pIC50 is 6.25.

Regarding `COc1ccc2nc(NCCCNCc3ccsc3)cc(C)c2c1` [Example 2, N-(6-Methoxy-4-methyl-2-quinolinyl)-N′-(3-thienylmethyl)-1,3-propanediamine], the pIC50 is 8.00.

As a reminder, the pIC50 is −log10 of the IC50, conventionally taken in molar units. Low readings indicate a high IC50, high ones a low IC50.

Values taken from patent US20060247439A1, “Mchir antagonists” (AstraZeneca AB, priority 2002, published 2006).
